Experimental findings from patent US20130079345A1, “[…] ACTIVE DISUBSTITUTED TRIAZINE DERIVATIVES” (BAYER INTELLECTUAL PROPERTY GMBH, priority 2010, published 2013) are described below.

Bounds are passed on as bounds.

In one assay the target is T1, CDK9/CycT1 (Homo sapiens, UniProt P50750).
T1 construct: Recombinant full-length His-tagged human CDK9 and CycT1; His; purchased Invitrogen PV4131; host or cells: insect cells
In words: CDK9/CycT1 kinase assay (TR-FRET). The conditions noted are these: ATP 10 μM. It counts as biochemical. The source says: CDK9/CycT1-inhibitory activity of compounds of the present invention was quantified employing the CDK9/CycT1 TR-FRET assay as described in the following paragraphs.
Recombinant full-length His-tagged human CDK9 and CycT1, expressed in insect cells and purified by Ni-NTA affinity chromatography, were purchased from Invitrogen (catalogue number PV4131). A biotinylated peptide biotin-Ttds-[…] (C-terminus in amide form), which can be purchased from e.g the company JERINI Peptide Technologies (Berlin, Germany), was used as a substrate for the kinase reaction.
(§1) For the assay, 50 nl of a 100-fold concentrated solution of the test compound in DMSO was pipetted into a well of a black low-volume 384-well microtiter plate (Greiner Bio-One, Frickenhausen, Germany), 2 μl of a solution of CDK9/CycT1 in aqueous assay buffer [50 mM Tris/HCl pH 8.0], 10 mM MgCl2, 1.0 mM dithiothreitol, 0.1 mM sodium ortho-vanadate, 0.01% (v/v) Nonidet-P40 (Sigma)] were added. The mixture was incubated at 22° C. for 15 min to allow pre-binding of the test compounds to the enzyme before the start of the kinase reaction. […] The resulting mixture was incubated at 22° C. for a reaction time of 25 minutes. The concentration of CDK9/CycT1 was adjusted depending of the activity of the enzyme lot and was chosen appropriately for measurements in the linear range of the assay. Typical concentrations were in the range of 1 μg/ml. The reaction was stopped by the addition of 5 μl of a solution of TR-FRET detection reagents (0.2 μM streptavidine-XL and 1 nM anti-RB(pSer807/pSer811)-antibody from BD Pharmingen [#558389] and 1.2 nM LANCE EU-W1024 labeled anti-mouse IgG antibody [Perkin-Elmer, product no. AD0077]) in an aqueous EDTA-solution (100 mM EDTA, 0.2% (w/v) bovine serum albumin in 100 mM HEPES/NaOH, pH 7.0).
(§2) The resulting mixture was incubated at 22° C. for one hour to allow the formation of a complex between the phosphorylated biotinylated peptide and the detection reagents. Subsequently, the amount of phosphorylated substrate was evaluated by measurement of the resonance energy transfer from the Eu-chelate to the streptavidine-XL. Therefore, the fluorescence emissions at 620 nm and 665 nm after excitation at 350 nm were measured in a HTRF reader, e.g. a Rubystar (BMG Labtechnologies, Offenburg, Germany) or a Viewlux (Perkin-Elmer). The ratio of the emissions at 665 nm and at […] was taken as a measure for the amounts of phosphorylated substrate. The data were normalised, i.e. enzyme reaction without inhibitor corresponds to 0% inhibition, and all other assay components in the absence of the enzyme correspond to 100% inhibition. IC50 values were calculated by a 4-parameter fit using in-house software.

Another assay deals with T2, CDK2/CycE (Homo sapiens, UniProt P24941).
T2 construct: GST; purchased ProQinase GmbH (Freiburg, Germany); host or cells: insect cells (Sf-9)
In words: CDK2/CycE kinase assay (TR-FRET). It counts as biochemical. The conditions noted are these: ATP 10 μM.
Excerpt: CDK2/CycE-inhibitory activity of compounds of the present invention was quantified employing the CDK2/CycE TR-FRET assay as described in the following paragraphs.
Recombinant fusion proteins of glutathione S-transferase (GST) and human CDK2 and of GST and human CycE, expressed in insect cells (Sf-9) and purified by glutathion-sepharose affinity chromatography, were purchased from ProQinase GmbH (Freiburg, Germany). A biotinylated peptide biotin-Ttds-[…] (C-terminus in amide form), which can be purchased from e.g the company JERINI Peptide Technologies (Berlin, Germany), was used as a substrate for the kinase reaction.
as §1, with “of CDK2/CycE” for “of CDK9/CycT1”, “for” for “for a reaction time of”, “depending on” for “depending of”, “of 130 ng/ml.” for “of 1 μg/ml.”
as §2, with “measuring” for “measurement of”, “high time-resolved fluorometry (HTRF)” for “HTRF”

T1 sequence (P50750 whole entry): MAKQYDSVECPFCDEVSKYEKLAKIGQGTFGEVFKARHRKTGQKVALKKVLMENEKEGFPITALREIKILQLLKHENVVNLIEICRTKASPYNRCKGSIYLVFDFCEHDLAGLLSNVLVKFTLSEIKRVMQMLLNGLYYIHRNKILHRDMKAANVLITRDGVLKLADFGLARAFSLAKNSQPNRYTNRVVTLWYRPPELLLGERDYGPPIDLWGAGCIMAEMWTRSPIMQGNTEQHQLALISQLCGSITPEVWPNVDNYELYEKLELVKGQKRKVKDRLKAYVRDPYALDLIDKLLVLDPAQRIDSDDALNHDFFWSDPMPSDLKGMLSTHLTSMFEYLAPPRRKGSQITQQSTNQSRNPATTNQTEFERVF
T1 sequence (O60563 whole entry partner): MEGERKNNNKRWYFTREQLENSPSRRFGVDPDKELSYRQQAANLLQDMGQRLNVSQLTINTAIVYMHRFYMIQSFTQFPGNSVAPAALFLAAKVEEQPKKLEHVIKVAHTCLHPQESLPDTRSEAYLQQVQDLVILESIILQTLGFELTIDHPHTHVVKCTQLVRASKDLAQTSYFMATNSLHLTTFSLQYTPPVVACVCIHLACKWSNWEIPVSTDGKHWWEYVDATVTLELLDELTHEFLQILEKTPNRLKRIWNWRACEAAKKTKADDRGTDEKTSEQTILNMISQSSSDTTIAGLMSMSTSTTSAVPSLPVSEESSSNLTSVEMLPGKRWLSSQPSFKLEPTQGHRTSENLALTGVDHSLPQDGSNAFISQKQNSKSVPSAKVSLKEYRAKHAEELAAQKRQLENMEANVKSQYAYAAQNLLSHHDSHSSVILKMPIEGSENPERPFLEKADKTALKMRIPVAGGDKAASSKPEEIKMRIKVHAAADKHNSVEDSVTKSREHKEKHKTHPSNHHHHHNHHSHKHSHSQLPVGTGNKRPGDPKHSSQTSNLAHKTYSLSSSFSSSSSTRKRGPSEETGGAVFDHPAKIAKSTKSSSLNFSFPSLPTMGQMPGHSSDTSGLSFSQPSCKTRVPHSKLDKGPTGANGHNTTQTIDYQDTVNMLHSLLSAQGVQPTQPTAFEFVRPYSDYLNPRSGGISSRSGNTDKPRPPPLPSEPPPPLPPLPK

As for `NS(=O)(=O)Cc1cccc(Nc2ncnc(-c3ccc(F)cc3C(F)(F)F)n2)c1` [Compound U1, 1-[3-({4-[4-fluoro-2-(trifluoromethyl)phenyl]-1,3,5-triazin-2-yl}amino)phenyl]methanesulfonamide], the IC50 at CDK9/CycT1 (values given in μM) and at CDK2/CycE (values given in μM) was 15 µM each time.
In the case of `COc1c(-c2ncnc(Nc3cccc(CS(N)(=O)=O)c3)n2)ccc(F)c1F` [Compound U6, 1-(3-{[4-(3,4-difluoro-2-methoxyphenyl)-1,3,5-triazin-2-yl]amino}phenyl)methanesulfonamide], the half-inhibitory concentration (IC50) at CDK9/CycT1 (values in nM) was 0.37 µM; at CDK2/CycE (values given in μM), 12 µM.
For `NS(=O)(=O)Cc1cccc(Nc2ncnc(-c3ccc(F)cc3OCC3CC3)n2)c1` [Compound U5, 1-[3-({4-[2-(cyclopropylmethoxy)-4-fluorophenyl]-1,3,5-triazin-2-yl}amino)phenyl]methanesulfonamide] the same measures were 0.034 µM and 1.6 µM.
Regarding `CC(=O)Nc1cc(F)ccc1-c1ncnc(Nc2cccc(CS(N)(=O)=O)c2)n1` [Compound U4, N-[5-fluoro-2-(4-{[3-(sulfamoylmethyl)phenyl]amino}-1,3,5-triazin-2-yl)phenyl]acetamide], the values for the concentration for half-maximal inhibition (IC50) against CDK9/CycT1 (values given in μM) and at CDK2/CycE (values given in μM) were 3.6 µM and 3 µM, respectively.
Take `COc1ccccc1-c1ncnc(Nc2cccc(S(N)(=O)=O)c2)n1` [Compound C1, 3-[(4-(2-Methoxyphenyl)-1,3,5-triazin-2-yl)amino]benzenesulfonamide]: the half-maximal inhibitory concentration (IC50) turned out to be 0.01 µM against CDK9/CycT1 (values in nM) and 0.45 µM against CDK2/CycE (values in nM).
Turning to `Cc1ccc(Cl)cc1-c1ncnc(Nc2ccc(Cl)cc2)n1` [Ref3, [6-(5-Chloro-2-methyl-phenyl)-[1,3,5]triazin-4-yl]-(4-chloro-phenyl)-amine, reference compound], the 50% inhibitory concentration (IC50) on CDK9/CycT1 (values given in μM) and on CDK2/CycE (values given in μM) was greater than 20 µM throughout.
As for `NC(=O)c1ccc(Nc2ncnc(-c3ccccc3NC(=O)c3ccccc3)n2)cc1` [Ref5, 4-[4-(2-Benzoylaminophenyl)-[1,3,5]triazin-2-ylamino]benzamide, reference compound], the half-inhibitory concentration (IC50) is 8.4 µM against CDK9/CycT1 (values given in μM) and 14 µM at CDK2/CycE (values given in μM).
